Data on 1 molecule can be found in EP0064487A1, “New substituted 3-(parasubstituted)phenoxy-1-alkylamino-propanol-2-s, as well as process for their preparation, pharmaceutical preparations containing same, and method for treating cardiac failure” (priority 1981, dated 1982).

The test system of experiment [1] is contractility of the heart. In words: Positive inotropic effect (increase in max dP/dt) in reserpine-pretreated, anaesthetized cats, i.v. dosing. To be noted: continuous infusion. Type of experiment: in vivo. The method, then: The positive inotropic effect and the cardioselectivity of the compounds were studied in cats with an average weight of 3 kg. The animals were pretreated with reserpine (5 mg/kg i.p.) about 16 hours before experiment. This treatment eliminated the reflex sympathetic control of the heart and the vascular tonus. Following pentobarbital anaesthesia (Mebumal^e, 30 mg/kg i.p.) artificial air respiration was started. The two vagus nerves were cut and the adrenal glands were excluded from the circulation by means of ligatures on the adrenal veins.
Blood pH, pC02 and p02 were kept within the normal ranges throughout the experiments. All recordings were made on a Grass Polygraph. Heart rate, pressure in the left ventricle (LVP), the first derivative of LVP (dP/dt), intra-arterial blood pressure and peripheral resistance were recorded. LVP was recorded via a catheter tip pressure transducer (Millar), which was inserted via the left carotid artery. This.pressure curve was differentiated and max dP/dt was recorded by means of a peak detector. The recording of max dP/dt was linear up to 20 […]. The increase in max dP/dt was used as a measure of the increased contractility of the heart.
The substances were administered intravenously in increasing doses. […]

Experiment [2] concerns inotropic effect (max dF/dt) in the aorta. The experiment is described as follows: Duration of positive inotropic action (decline of max dF/dt in the aorta) in conscious dogs, i.v. dosing. The conditions noted are these: conscious beagle dogs, intravenous. Format: in vivo. The method, then: The duration of action of the compounds has been studied in conscious beagle dogs. An electromagnetic flow probe was inplanted on the ascending aorta for determination of the r inotropic effect measured as maximal flow acceleration (max dF/dt) in the aorta. For determination of blood pressure catheters were inplanted in thoracic aorta and .left atrium. Increasing doses of the substances were administered intravenously and the decline of inotropic effect (max dF/dt) was used for determination of duration.

`CC(C)NCC(O)c1ccc(O)c(O)c1` (centres unmarked) [isoprenaline]: the Half maximal effect in experiment [1] is 0.004 µmol/kg/min. Also, the “time for 50% decline of the positive inotropic effect (max dF/dt)” value in experiment [2] is reported as “less than 1 min”.
